Measurements as given in patent publication US6241963A, “Dopamine and serotonin transporter ligands and imaging agents” (priority 1996, dated 2001).
Values joined by “and” are separate entries in the source; they are usually repeats but may differ in a detail not shown here. Equal entries are not always repeated. Where two headings read alike, the source gives them in different places.

Assays:
dopamine transporters = dopamine transporters (Rattus norvegicus, UniProt P23977); assay type: in vivo, Male Sprague-Dawley rats; details: rats, iv
Chain of dopamine transporters (P23977 whole entry): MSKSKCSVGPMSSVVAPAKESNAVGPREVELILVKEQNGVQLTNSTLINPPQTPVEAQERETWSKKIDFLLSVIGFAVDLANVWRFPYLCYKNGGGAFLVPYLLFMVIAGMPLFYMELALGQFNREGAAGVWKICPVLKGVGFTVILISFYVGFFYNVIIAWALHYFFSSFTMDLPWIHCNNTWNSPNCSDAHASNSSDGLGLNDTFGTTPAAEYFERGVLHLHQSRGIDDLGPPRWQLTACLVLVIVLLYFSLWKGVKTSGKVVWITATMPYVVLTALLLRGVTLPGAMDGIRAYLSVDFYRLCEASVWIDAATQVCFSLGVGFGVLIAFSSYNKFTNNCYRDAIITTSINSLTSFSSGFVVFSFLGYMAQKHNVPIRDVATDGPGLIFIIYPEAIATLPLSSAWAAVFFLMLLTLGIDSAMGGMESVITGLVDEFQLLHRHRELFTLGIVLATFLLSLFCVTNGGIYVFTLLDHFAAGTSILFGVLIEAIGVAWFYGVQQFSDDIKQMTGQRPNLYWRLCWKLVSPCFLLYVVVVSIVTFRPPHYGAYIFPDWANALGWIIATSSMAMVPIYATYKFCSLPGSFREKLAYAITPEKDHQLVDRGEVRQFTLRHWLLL
Protocol: For dopamine transporter imaging agents, the target area of the brain is the striatum, where dopamine transporters are highly concentrated. The cerebellum region is suitable for use as the background region, because it has no dopamine transporters. The specific uptake is measured by the ratio of % dose/gram of striatum divided by % dose/gram of cerebellum (ST/CB ratio)--the higher the value, the better the specific uptake, and the more promising as a dopamine transporter imaging agent.
(§1) Regional brain distribution in rats was obtained after an injection of 1.19a, 1.19b, 1.20a, 1.20b or 1.21. Samples from different brain regions (cortex, striatum, hippocampus, and cerebellum) were dissected, weighed and counted, and the percentage dose per gram of sample was calculated by comparing the sample counts with the count of the diluted initial dose. The uptake ratio of each region was obtained by dividing the percentage dose per gram of that region by that of the cerebellum. For blocking studies, rats were injected with either β-CIT or haloperidol (iv, 1 mg/Kg) 5 min prior to injection of 1.19a. The rats were dissected and brain tissue samples were counted as described above. The specific uptake of the compound was expressed as ratio of ST/CB (% dose/g of striatum divided by the same of cerebellum).
(§2) The major criteria for determining the potential usefulness of in vivo dopamine transporter imaging agents are based on an animal biodistribution study. In this case, rats were used as an animal model. After an intravenous injection of the Tc-99m labeled compounds, the values of initial brain uptake (% dose/whole organ) at 2 minutes post intravenous injection are used to measure the ability to penetrate the intact blood-brain barrier. Compounds displaying higher brain uptake are the better agents (minimum requirement >0.1% dose in brain). The second criteria is the specific uptake in the striatum region of the brain, where dopamine transporters are located. The uptake value (% dose/gram) of the striatum (ST) is divided by the background area, cerebellum (CB; essentially devoid of dopamine transporter); the ratio of ST/CB is an indicator for specific uptake (minimum requirement for ST/CB >1.5). Five structurally similar tropane derivatives were examined in this biological study. (Tables 1.1 to 1.4).
as §1, with “3.24 to 3.34.” for “1.19a, 1.19b, 1.20a, 1.20b or 1.21.”, “3.25.” for “1.19a.”, “above.” for “above. The specific uptake of the compound was expressed as ratio of ST/CB (% dose/g of striatum divided by the same of cerebellum).”

[1] = assay type: in vivo, Male Sprague-Dawley rats
Protocol: Male Sprague-Dawley rats (225-300 g) allowed free access to food and water were used for in vivo biodistribution studies. Kung, 1984, supra; Kung, 1985, supra. While under ether anesthesia, 0.2 mL of a saline solution containing 1.19a, 1.19b, 1.20a, 1.20b or 1.21 (50-100 μCi) was injected directly into the femoral vein of rats, and the rats were sacrificed by cardiac excision at various time points post-injection. The organs of interest were removed and weighed, and the radioactivity was counted with an automatic gamma counter (Packard 5000). The percentage dose per organ was calculated by a comparison of the tissue counts to suitably diluted aliquots of the injected material. Total activities of blood and muscle were calculated under the assumption that they were 7% and 40% of the total body weight, respectively.
as §2
Male Sprague-Dawley rats (225-300 g) that were allowed free access to food and water were used for in vivo biodistribution studies. (Kung, 1984, supra; Kung, 1985, supra). While under halothane anesthesia, 0.2 mL of a saline solution containing 3.24 to 3.34 ([…]) was injected directly into the femoral vein of rats, and they were sacrificed by cardiac excision at various time points post-injection. The organs of interest were removed and weighed, and the radioactivity was counted with an automatic gamma counter (Packard 5000). The percentage dose per organ was calculated by a comparison of the tissue counts to suitably diluted aliquots of the injected material. Total activities of blood and muscle were calculated under the assumption that they were 7% and 40% of the total body weight, respectively.

[2] = Partition coefficient between 1-octanol (n-octanol) and buffer; assay type: physicochemical
Protocol: (§3) Partition coefficients were measured by mixing each Tc-99m compound with 3 g each of 1-octanol and buffer (pH 7.0 or 7.4, 0.1 M phosphate) in a test tube. The test tube was vortexed for 3 minutes at room temperature, then centrifuged for 5 minutes. Two weighed samples (0.5 g each) from the 1-octanol and buffer layers were counted in a well counter. The partition coefficient was determined by calculating the ratio of cpm/g of octanol to that of buffer. Samples from the octanol layer were repartitioned until consistent partition coefficient values were obtained. The measurement was repeated 3 times.
as §3, with “The partition coefficient was measured” for “Partition coefficients were measured”, “mixing the” for “mixing each”, “3 min” for “3 minutes”

[3] = Table 1.2, rats iv, percentage dose per organ

CN1[C@H]2CC[C@@H]1[C@@H](C[N+]13CC[S][99Tc-]14(=[O])[S]CC[N]4CC3)[C@@H](c1ccc(Cl)cc1)C2 (stereo partly shown) [Compound 1.19a]
ST/CB ratio, 2 min (dopamine transporters; 2 min): 0.93 ± 0.23
ST/CB ratio, 30 min (dopamine transporters; 30 min): 2.04 ± 0.18
ST/CB ratio, 30 min (dopamine transporters; 30 min, listed as TRODAT-1): 2.0
ST/CB ratio, 60 min (dopamine transporters; 60 min): 2.66 and 2.66 ± 0.01
ST/CB ratio, 120 min (dopamine transporters; 120 min): 3.90 ± 1.33
ST/CB ratio, 240 min (4 hours) (dopamine transporters; 240 min): 4.07
ST/CB ratio, 360 min (dopamine transporters; 360 min): 2.97 ± 0.14
Biodistribution, Blood, 60 minutes* ([1]; Table 1.2, *unexplained): 6.29 ± 1.12
Biodistribution, Brain, 60 minutes* ([1]; Table 1.2, *unexplained): 0.12 ± 0.01
Biodistribution, Heart, 60 minutes* ([1]; Table 1.2, *unexplained): 0.25 ± 0.05
Biodistribution, Kidney, 60 minutes* ([1]; Table 1.2, *unexplained): 1.76 ± 0.32
Biodistribution, Liver, 60 minutes* ([1]; Table 1.2, *unexplained): 20.35 ± 0.99
Biodistribution, Lung, 60 minutes* ([1]; Table 1.2, *unexplained): 1.76 ± 0.12
Biodistribution, Muscle, 60 minutes* ([1]; Table 1.2, *unexplained): 10.37 ± 0.48
Biodistribution, Skin, 60 minutes* ([1]; Table 1.2, *unexplained): 4.11 ± 0.29
Biodistribution, Spleen, 60 minutes* ([1]; Table 1.2, *unexplained): 0.51 ± 0.06
Biodistribution, Blood, 2 minutes [1, 3]: 4.94 ± 0.46
Biodistribution, Blood, 60 minutes [1, 3]: 2.14 ± 0.17
Biodistribution, Brain, 2 minutes [1, 3]: 0.43 ± 0.16
Biodistribution, Brain, 60 minutes [1, 3]: 0.12 ± 0.00
Biodistribution, Heart, 2 minutes [1, 3]: 1.47 ± 0.16
Biodistribution, Heart, 60 minutes [1, 3]: 0.19 ± 0.02
Biodistribution, Kidney, 2 minutes [1, 3]: 5.13 ± 0.75
Biodistribution, Kidney, 60 minutes [1, 3]: 3.06 ± 0.14
Biodistribution, Liver, 2 minutes [1, 3]: 16.62 ± 2.11
Biodistribution, Liver, 60 minutes [1, 3]: 17.67 ± 3.42
Biodistribution, Lung, 2 minutes [1, 3]: 6.82 ± 0.37
Biodistribution, Lung, 60 minutes [1, 3]: 1.86 ± 0.36
Biodistribution, Muscle, 2 minutes [1, 3]: 10.84 ± 1.95
Biodistribution, Muscle, 60 minutes [1, 3]: 10.28 ± 1.36
Biodistribution, Skin, 2 minutes [1, 3]: 2.66 ± 0.35
Biodistribution, Skin, 60 minutes [1, 3]: 3.96 ± 0.22
Biodistribution, Spleen, 2 minutes [1, 3]: 0.42 ± 0.16
Biodistribution, Spleen, 60 minutes [1, 3]: 0.45 ± 0.05
Brain uptake, 2 min ([1]; rats, iv, 2 min): 0.43 ± 0.16 % dose/organ
Brain uptake, 2 min ([1]; rats, iv, 2 min, listed as TRODAT-1): 0.425 ± 0.120 % dose/organ
Brain uptake, 30 min ([1]; rats, iv, 30 min): 0.232 ± 0.021 % dose/organ
Brain uptake, 60 min ([1]; rats, iv, 60 min): 0.12 ± 0.001 % dose/organ and 0.12 ± 0.00 % dose/organ
Partition coefficient (P.C.), 1-octanol/pH 7.0 buffer ([2]; 1-octanol/pH 7.0 phosphate buffer, listed as TRODAT-1): 227

COC(=O)C1C(c2ccc(Cl)cc2)CC2CCC1N2CC[S][99Tc-]12(=[O])[S]CC[N+]1(C)CC[S]2 [Compound 3.25, [^99m Tc] technetium, [methyl 3-(4-chlorophenyl)-8-(2-mercaptoethyl)-8-azabicyclo [3.2.1]octane-2-carboxylato-S][[2,2'-(methylimino)bis[ethanethiolato]](2-)-N,S,S']oxo]
Cerebellum, 2 min (dopamine transporters; 2 min): 0.066 ± 0.017 % dose/g
Cortex, 2 min (dopamine transporters; 2 min): 0.060 ± 0.009 % dose/g
Hippocampus, 2 min (dopamine transporters; 2 min): 0.046 ± 0.005 % dose/g
ST/CB ratio, 2 min (dopamine transporters; 2 min): 0.82
Striatum, 2 min (dopamine transporters; 2 min): 0.054 ± 0.010 % dose/g
Cerebellum, 30 min (dopamine transporters; 30 min): 0.027 ± 0.006 % dose/g
Cortex, 30 min (dopamine transporters; 30 min): 0.038 ± 0.007 % dose/g
Hippocampus, 30 min (dopamine transporters; 30 min): 0.028 ± 0.008 % dose/g
ST/CB ratio, 30 min (dopamine transporters; 30 min): 2.2
Striatum, 30 min (dopamine transporters; 30 min): 0.060 ± 0.011 % dose/g
Cerebellum, 60 min (dopamine transporters; 60 min): 0.018 ± 0.001 % dose/g
Cortex, 60 min (dopamine transporters; 60 min): 0.026 ± 0.002 % dose/g
Hippocampus, 60 min (dopamine transporters; 60 min): 0.025 ± 0.003 % dose/g
ST/CB ratio, 60 min (dopamine transporters; 60 min): 3.5
Striatum, 60 min (dopamine transporters; 60 min): 0.063 ± 0.001 % dose/g
Cerebellum, 120 min (dopamine transporters; 120 min): 0.011 % dose/g
Cortex, 120 min (dopamine transporters; 120 min): 0.015 % dose/g
Hippocampus, 120 min (dopamine transporters; 120 min): 0.011 % dose/g
ST/CB ratio, 120 min (dopamine transporters; 120 min): 2.8
Striatum, 120 min (dopamine transporters; 120 min): 0.031 % dose/g
Brain Uptake (% dose), 2 min ([1]; Table 3.1, rats, iv, 2 min): 0.100 ± 0.068 % dose
Brain Uptake (% dose), 30 min ([1]; Table 3.1, rats, iv, 30 min): 0.07 ± 0.003 % dose
Biodistribution and washout, in words ([1]; rats, iv): cleared from muscle, while liver accumulation increased with time
Blood uptake, 2 min ([1]; rats, iv, 2 min): 4.72 ± 1.37 % dose/organ
Brain uptake, 2 min ([1]; rats, iv, 2 min): 0.10 ± 0.02 % dose/organ
Heart uptake, 2 min ([1]; rats, iv, 2 min): 1.46 ± 0.37 % dose/organ
Kidney uptake, 2 min ([1]; rats, iv, 2 min): 5.67 ± 0.94 % dose/organ
Liver uptake, 2 min ([1]; rats, iv, 2 min): 13.51 ± 0.36 % dose/organ
Lung uptake, 2 min ([1]; rats, iv, 2 min): 6.41 ± 2.04 % dose/organ
Muscle uptake, 2 min ([1]; rats, iv, 2 min): 23.30 ± 3.82 % dose/organ
Skin uptake, 2 min ([1]; rats, iv, 2 min): 2.94 ± 0.36 % dose/organ
Spleen uptake, 2 min ([1]; rats, iv, 2 min): 0.36 ± 0.07 % dose/organ
Blood uptake, 30 min ([1]; rats, iv, 30 min): 2.75 ± 0.62 % dose/organ
Brain uptake, 30 min ([1]; rats, iv, 30 min): 0.06 ± 0.02 % dose/organ
Heart uptake, 30 min ([1]; rats, iv, 30 min): 0.30 ± 0.04 % dose/organ
Kidney uptake, 30 min ([1]; rats, iv, 30 min): 3.10 ± 0.68 % dose/organ
Liver uptake, 30 min ([1]; rats, iv, 30 min): 29.61 ± 2.22 % dose/organ
Lung uptake, 30 min ([1]; rats, iv, 30 min): 2.09 ± 0.47 % dose/organ
Muscle uptake, 30 min ([1]; rats, iv, 30 min): 16.70 ± 3.62 % dose/organ
Skin uptake, 30 min ([1]; rats, iv, 30 min): 4.71 ± 1.27 % dose/organ
Spleen uptake, 30 min ([1]; rats, iv, 30 min): 0.61 ± 0.10 % dose/organ
Blood uptake, 60 min ([1]; rats, iv, 60 min): 2.83 ± 0.42 % dose/organ
Brain uptake, 60 min ([1]; rats, iv, 60 min): 0.046 ± 0.002 % dose/organ
Heart uptake, 60 min ([1]; rats, iv, 60 min): 0.22 ± 0.23 % dose/organ
Kidney uptake, 60 min ([1]; rats, iv, 60 min): 2.87 ± 0.43 % dose/organ
Liver uptake, 60 min ([1]; rats, iv, 60 min): 32.15 ± 3.00 % dose/organ
Lung uptake, 60 min ([1]; rats, iv, 60 min): 1.26 ± 0.06 % dose/organ
Muscle uptake, 60 min ([1]; rats, iv, 60 min): 13.63 ± 0.99 % dose/organ
Skin uptake, 60 min ([1]; rats, iv, 60 min): 4.57 ± 0.65 % dose/organ
Spleen uptake, 60 min ([1]; rats, iv, 60 min): 0.50 ± 0.09 % dose/organ
Blood uptake, 120 min ([1]; rats, iv, 120 min): 2.31 ± 0.27 % dose/organ
Brain uptake, 120 min ([1]; rats, iv, 120 min): 0.025 ± 0.002 % dose/organ
Heart uptake, 120 min ([1]; rats, iv, 120 min): 0.12 ± 0.013 % dose/organ
Kidney uptake, 120 min ([1]; rats, iv, 120 min): 2.74 ± 0.096 % dose/organ
Liver uptake, 120 min ([1]; rats, iv, 120 min): 35.37 ± 1.52 % dose/organ
Lung uptake, 120 min ([1]; rats, iv, 120 min): 0.69 ± 0.061 % dose/organ
Muscle uptake, 120 min ([1]; rats, iv, 120 min): 4.33 ± 1.20 % dose/organ
Skin uptake, 120 min ([1]; rats, iv, 120 min): 2.30 ± 0.082 % dose/organ
Spleen uptake, 120 min ([1]; rats, iv, 120 min): 0.58 ± 0.009 % dose/organ
Partition coefficient / lipophilicity, comparison in words [2]: appears to be the best among this series of three plus one Tc complexes
Partition coefficient, n-octanol/buffer ([2]; n-octanol/phosphate buffer (pH 7.0 or 7.4)): 307
